Patent US11524003B2, “Alpha-amino esters of hydroxypropylthiazolidine carboxamide derivative and salt form, crystal polymorph thereof” (ObsEva S.A., priority 2016, dated 2022)
Values after ≈ are worked out from the molar mass of the structure shown. Read-outs that look alike come from different tables or passages of the source.

What was measured:
Caco-2 cell monolayer = test: Bidirectional permeability across Caco-2 cell monolayers; format: in vitro ADME, human
Method: (§1) Compound I was dissolved in HBSS buffer (1% DMSO final concentration) at the concentrations of 1.5, 3 and 6 μM. Each concentration/sampling time was run in duplicate well. The test was performed in a gradient pH: the apical compartment (mucosal) was at pH 6.5, the basolateral compartment (serosal) was at pH 7.4.
(§2) Apical to basolateral (A→B, mucosal to serosal) transport: 200 μL of each concentration of compound I was added to the apical compartment and 400 μL of HBSS was added to the basolateral compartment. The plates were incubated at 37° C. An aliquot of the basolateral compartment was sampled after 60 and 120 min (t=60 and t=120). An aliquot of the apical compartment was sampled at the starting time (t=0) and after 120 min. (t=120).
(§3) Basolateral to apical (B→A, serosal to mucosal) transport: 400 μL of each concentration of compound I was added to the basolateral compartment and 200 μL of HBSS was added to the apical compartment. The plates were incubated at 37° C. An aliquot of the apical compartment was sampled after 60 and 120 min (t=60 and t=120). An aliquot of the basolateral compartment was sampled at the starting time (t=0) and after 120 min. (t=120). All samples were analyzed by LC/MS monitoring both compound I and the appearance of compound II.
as §1, with “II” for “I”
as §2, with “II” for “I”
as §3, with “of compound II was added” for “of compound I was added”, “LC/MS monitoring compound II.” for “LC/MS monitoring both compound I and the appearance of compound II.”

[1] = Solubility in water, FaSSIF and FeSSIF; format: physicochemical
[2] = test system: panel of 50 receptors, channels and enzymes binding sites; conditions: 1 μM
[3] = test system: proinflammatory proteins (COX-2, p-cPLA2, p-p65, p-p38, p-ERK); test: Western blot of proinflammatory proteins in human myometrial and amnion biopsies
Method: FIG. 79a is a Western blot showing the effects of oxytocin, nolasiban, and a combination thereof on the expression of phosphorylated p65 (p-p65), phosphorylated p38 (p-p38), and phosphorylated extracellular signal-regulated kinase (p-ERK) in N=6 term, pre-laboring myometrial biopsies collected from human female subjects undergoing caesarean section delivery. Samples were either unstimulated (“NS”), stimulated with oxytocin (“OT”), treated with nolasiban at a concentration of 1 μM, or treated with both oxytocin and nolasiban at a concentration of 1 μM for the indicated periods of time. A blot against β-actin was performed as a control. FIG. 79b is a Western blot showing the effects of oxytocin and/or varying concentration of compound II, optionally in combination with nolasiban, on the expression of p-p65, p-p38, and p-ERK in N=6 term, pre-laboring myometrial biopsies collected from human female subjects undergoing caesarean section delivery. Samples were either unstimulated (“NS”), stimulated with oxytocin (“OT”), treated with compound II at a concentration of 3 μM, or treated with both oxytocin and compound II at varying concentrations of compound II, both in the presence and absence of nolasiban at a concentration of 1 μM for the indicated periods of time. A blot against β-actin was performed as a control. […]

[4] = Stability in HBSS buffer of the Caco-2 experiments; format: in vitro ADME; conditions: HBSS buffer (2% DMSO final concentration) at 37° C. for 60 and 120 minutes
Method: Stability of both compound I and compound II was assessed during the test. […] An aliquot of each solution was sampled at time zero (t=0) to assess the starting concentrations of the compounds. The solutions were incubated at 37° C. for the duration of the transport experiment. An aliquot of each solution was sampled at the end of experiment (t=120) to assess the final concentrations of compound I and compound II. Samples were analyzed by LC-MS.

O=C(N[C@@H](CCO)c1ccc(F)cc1)[C@@H]1SCCN1S(=O)(=O)c1ccc(-c2ccccc2)cc1 [Compound II, 3-([1,1′-biphenyl]-4-ylsulfonyl)-N-[1-(4-fluorophenyl)-3-hydroxypropyl]-1,3-thiazolidine-2-carboxamide]
Efflux (Caco-2 cell monolayer): No efflux was detected
Passive passage through the Caco-2 monolayer (Caco-2 cell monolayer): good passive passage
Passage apical to basolateral (Caco-2 cell monolayer; A→B): good percentage of passage
Permeability from basolateral to apical compartment (Caco-2 cell monolayer; B→A): low rate of permeability
solubility ([1]; FaSSIF, pH 6.5 (fasted state), read-out: Solubility in FaSSIF pH 6.5): 0.4 µg/mL (≈ 0.799 µM)
solubility ([1]; FeSSIF, pH 5.0 (fed state), read-out: Solubility in FeSSIF pH 5.0): 10 µg/mL (≈ 20 µM)
Selectivity in panel of 50 receptors, channels and enzymes [2]: high selectivity for FP
Expression of proinflammatory proteins [3]: capable of reducing the expression of various proinflammatory proteins
Stability in HBSS buffer [4]: stable
